Legend:
[1] = biological target: Recombinant, full length human FLAG-tagged ATM (Homo sapiens (Human), UniProt Q13315); experiment: ATM ELISA for p53 S15 phosphorylation; assay type: biochemical; settings: 0.75 nM ATM, 25 nM p53, 10 μM ATP, 30 min at 20° C.; read-out: ATM BIO IC50
Procedure: ATM: Recombinant, full length human FLAG-tagged ATM activity (Eurofins 14-933) was measured in an ELISA for p53 S15 phosphorylation, in a 384 well V-bottom polypropylene plate (Greiner Bio One 781280). Reactions contained 0.75 nM ATM, 25 nM full length myc tagged p53 (Eurofins 23-034), 10 μM UltraPure ATP (Promega V915B) and serial dilutions of inhibitors (0.1% DMSO final) in 25 mM HEPES, pH 7.5. 5 mM MgCl2, 2.5 mM MnCl2, 0.006% Brij-35, 0.5% glycerol, 0.1 mg/ml BSA, 0.5 mM DTT and were allowed to proceed for 30 min at 20° C. 70 mM EDTA final terminated the kinase reactions. An aliquot of the terminated reaction (25 μl) was transferred to a 384-well, high binding microplate (Greiner Bio One 781061), precoated with anti-myc capture antibody overnight (Millipore 05-724) diluted in 1:1000 in PBS, then blocked with Odyssey blocking buffer (LI-COR Biosciences 92740000) for 60 min at 20° C. The terminated reaction was allowed to capture for 2 h at 20° C. Phosphorylation was measured using an antibody specific to p53 S15 phosphorylation (1:5000 Abcam ab38497), anti-rabbit HRP (1:1000 Cell Signalling Technology, 7074) and TMB (ab171522). Antibodies were diluted in Odyssey blocking buffer and incubated for 60 min at 20° C. Three washes with PBS containing 0.05% (v/v) Tween 20 (PBS-T) were performed between each incubation. The TMB reaction was stopped with an equal volume of 0.2 M sulfuric acid and absorbance read at 450 nm on the Perkin Elmer Envision within 30 min of terminating the reaction. […] IC50 values represent the mean from at least two independent experiments.

cellular ATM activity = cellular ATM activity (Homo sapiens (Human), UniProt Q13315); experiment: Inhibition of cellular ATM activity: etoposide-stimulated KAP1 phosphorylation in U20S cells; assay type: cell-based; settings: 100 μM etoposide, 60 min, read-out: ATM CELL IC50
Procedure: Inhibition of cellular ATM activity was determined by changes in etoposide-stimulated KAP1 phosphorylation, based on the work of Guo et al. 2014.
Cryopreserved U20S cells were plated overnight at 6 k cells/well in black walled, clear bottomed 384 well plates (Greiner Bio One 781090). After overnight incubation (37 C, 5% CO2), cells were incubated with titrations of test compounds (0.3% DMSO final) in the presence of 100 μM etoposide (Sigma E1383) to stimulate ATM via induction of double stranded DNA breaks. After 60 min, cells were fixed using 100% cold methanol and incubated at −20° C. for 10 min. Fixed cells were washed with PBS containing 0.05% (v/v) Tween 20 (PBS-T) prior to a 60 minute blocking step in Odyssey blocking buffer (LI-COR Biosciences 92740000). Primary antibodies (1:1000 phosphorylated KAP1: Cell Signalling Technology 4127, 1:5000 total KAP1: Cell Signaling Technology 5868) were diluted in Odyssey blocking buffer and incubated overnight at 4° C., before addition of IRDye(R) conjugated secondary antibodies (LI-COR Biociences 926-32211, LI-COR Biosciences 926-68070) diluted 1:2000 in Odyssey blocking buffer for 60 min at room temperature and detection by LI-COR Odyssey (ImageStudio version 2.1.10, focus offset 4 mm, resolution 169 μm, lowest quality, intensities of 1 and 3 for 700 and 800 channels respectively). Immunoreactivity was quantified and the ratio of phosphorylated KAP1 calculated by dividing by the total KAP1 immunoreactivity. The percentage of inhibition was calculated for each concentration of compound using 100% (100 μM etoposide+30 μM KU-60019) and 0% effect controls (100 μM etoposide+DMSO). IC50 values represent the mean from at least two independent experiments.

Chain of cellular ATM activity (Q13315 whole entry): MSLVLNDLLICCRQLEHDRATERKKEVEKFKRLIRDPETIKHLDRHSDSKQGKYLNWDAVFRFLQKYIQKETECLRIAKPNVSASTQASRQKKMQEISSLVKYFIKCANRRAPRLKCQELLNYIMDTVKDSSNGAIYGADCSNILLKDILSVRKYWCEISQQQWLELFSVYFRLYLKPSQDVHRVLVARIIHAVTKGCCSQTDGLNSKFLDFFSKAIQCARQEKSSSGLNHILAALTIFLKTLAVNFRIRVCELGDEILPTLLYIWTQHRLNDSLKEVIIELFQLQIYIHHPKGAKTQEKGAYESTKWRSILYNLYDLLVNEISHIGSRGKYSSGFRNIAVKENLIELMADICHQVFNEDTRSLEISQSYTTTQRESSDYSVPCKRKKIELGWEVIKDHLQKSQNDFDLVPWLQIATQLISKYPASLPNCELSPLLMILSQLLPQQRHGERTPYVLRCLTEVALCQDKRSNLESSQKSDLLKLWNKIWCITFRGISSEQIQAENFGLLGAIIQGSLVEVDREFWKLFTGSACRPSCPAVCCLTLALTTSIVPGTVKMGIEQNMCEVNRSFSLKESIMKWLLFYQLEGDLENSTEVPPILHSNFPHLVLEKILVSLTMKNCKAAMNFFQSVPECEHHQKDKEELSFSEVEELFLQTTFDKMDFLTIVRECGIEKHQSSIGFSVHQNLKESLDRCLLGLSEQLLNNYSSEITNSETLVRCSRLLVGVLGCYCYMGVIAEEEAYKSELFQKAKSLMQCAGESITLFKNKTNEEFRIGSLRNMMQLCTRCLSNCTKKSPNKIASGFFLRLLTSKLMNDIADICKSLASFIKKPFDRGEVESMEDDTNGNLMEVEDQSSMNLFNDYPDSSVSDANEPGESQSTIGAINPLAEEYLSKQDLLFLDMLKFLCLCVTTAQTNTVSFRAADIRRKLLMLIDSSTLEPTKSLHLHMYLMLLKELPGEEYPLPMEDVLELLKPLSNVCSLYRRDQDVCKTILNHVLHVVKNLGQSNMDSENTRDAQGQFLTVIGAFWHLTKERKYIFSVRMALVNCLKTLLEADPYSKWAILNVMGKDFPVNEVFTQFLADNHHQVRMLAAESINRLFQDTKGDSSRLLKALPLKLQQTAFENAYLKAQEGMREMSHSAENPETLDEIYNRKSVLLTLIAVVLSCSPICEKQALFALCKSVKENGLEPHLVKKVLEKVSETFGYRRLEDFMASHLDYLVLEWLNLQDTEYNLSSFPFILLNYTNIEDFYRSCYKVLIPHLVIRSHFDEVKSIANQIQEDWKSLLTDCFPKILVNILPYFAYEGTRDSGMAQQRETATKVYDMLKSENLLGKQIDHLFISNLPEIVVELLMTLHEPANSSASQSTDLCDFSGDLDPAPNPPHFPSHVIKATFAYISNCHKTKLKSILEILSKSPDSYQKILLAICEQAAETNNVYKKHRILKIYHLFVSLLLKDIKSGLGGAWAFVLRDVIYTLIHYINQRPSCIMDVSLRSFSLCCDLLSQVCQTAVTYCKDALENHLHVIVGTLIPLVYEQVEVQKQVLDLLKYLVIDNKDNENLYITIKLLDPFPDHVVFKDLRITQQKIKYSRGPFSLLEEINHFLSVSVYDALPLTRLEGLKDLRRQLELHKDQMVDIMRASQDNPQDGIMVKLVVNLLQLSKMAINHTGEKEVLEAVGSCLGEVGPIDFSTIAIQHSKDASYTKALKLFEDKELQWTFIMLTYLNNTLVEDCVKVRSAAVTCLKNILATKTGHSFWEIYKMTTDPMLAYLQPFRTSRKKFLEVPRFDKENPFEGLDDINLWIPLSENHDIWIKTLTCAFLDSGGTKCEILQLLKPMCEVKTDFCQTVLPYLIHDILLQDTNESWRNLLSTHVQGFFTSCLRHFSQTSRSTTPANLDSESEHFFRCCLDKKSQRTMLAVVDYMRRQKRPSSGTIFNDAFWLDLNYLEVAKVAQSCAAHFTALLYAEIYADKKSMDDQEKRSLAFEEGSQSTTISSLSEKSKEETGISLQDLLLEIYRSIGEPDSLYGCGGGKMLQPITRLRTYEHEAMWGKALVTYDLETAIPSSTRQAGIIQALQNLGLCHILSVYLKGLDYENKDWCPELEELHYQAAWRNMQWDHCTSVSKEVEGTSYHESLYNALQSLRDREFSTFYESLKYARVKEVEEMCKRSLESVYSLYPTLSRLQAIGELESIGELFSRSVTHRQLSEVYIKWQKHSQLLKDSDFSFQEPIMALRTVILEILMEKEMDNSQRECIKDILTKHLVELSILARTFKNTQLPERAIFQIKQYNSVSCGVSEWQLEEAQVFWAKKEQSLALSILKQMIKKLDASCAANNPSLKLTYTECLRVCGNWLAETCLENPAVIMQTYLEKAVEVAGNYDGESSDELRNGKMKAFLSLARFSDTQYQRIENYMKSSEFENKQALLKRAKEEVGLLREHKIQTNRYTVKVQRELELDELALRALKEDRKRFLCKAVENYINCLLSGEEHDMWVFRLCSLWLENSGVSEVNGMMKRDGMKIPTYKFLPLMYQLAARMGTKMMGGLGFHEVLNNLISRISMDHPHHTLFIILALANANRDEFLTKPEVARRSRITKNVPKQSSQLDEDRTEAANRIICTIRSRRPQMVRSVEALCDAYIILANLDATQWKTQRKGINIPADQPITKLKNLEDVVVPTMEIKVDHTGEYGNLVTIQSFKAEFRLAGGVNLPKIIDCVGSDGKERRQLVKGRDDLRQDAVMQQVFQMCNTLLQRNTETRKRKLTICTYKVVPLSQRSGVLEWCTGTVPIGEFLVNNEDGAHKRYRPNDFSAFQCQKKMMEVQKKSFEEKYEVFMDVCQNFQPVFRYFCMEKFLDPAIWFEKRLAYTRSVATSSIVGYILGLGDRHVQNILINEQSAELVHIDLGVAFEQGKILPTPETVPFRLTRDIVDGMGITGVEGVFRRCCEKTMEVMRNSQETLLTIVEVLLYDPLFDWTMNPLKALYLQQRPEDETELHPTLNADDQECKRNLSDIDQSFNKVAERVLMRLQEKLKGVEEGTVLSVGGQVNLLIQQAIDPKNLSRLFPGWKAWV
Chain of Recombinant, full length human FLAG-tagged ATM (Q13315 whole entry): as above

Structure (SMILES)	IC50 [1] [nM]	IC50 (cellular ATM activity) [nM]
Cc1ccccc1C[C@H]1CCCCCN1c1nc(N2CCOCC2)cc(=O)[nH]1 [Example 181, (R)-2-(2-(2-methylbenzyl)azepan-1-yl)-6-morpholinopyrimidin-4(3H)-one]	1.2	548
CC(c1ccccc1)C1CCCN1c1nc(N2CCOCC2)cc(=O)[nH]1 (racemic) [Example 252, 6-morpholino-2-((R*)-2-((S*)-1-phenylethyl)pyrrolidin-1-yl)pyrimidin-4(3H)-one]	63.7	2290
O=c1cc(N2CCOCC2)nc(N2CCCC[C@@H]2Cc2ccccc2)[nH]1 [Example 199]	2.8	125
CC1C[C@H](Cc2ccccc2)N(c2cc(N3CCOCC3)cc(=O)[nH]2)C1 (single isomer, unassigned) [Example 101, 6-((2R,4R*)-2-benzyl-4-methylpyrrolidin-1-yl)-4-morpholinopyridin-2(1H)-one]	17.1	1410
C[C@H]1CCCN(c2nc(N3CCO[C@H](C)C3)cc(=O)[nH]2)[C@@H](Cc2ccccc2)C1 [Example 312, 2-((2R,4S)-2-benzyl-4-methylazepan-1-yl)-6-((R)-2-methylmorpholino)pyrimidin-4(3H)-one]	44.7	1740
COc1ccccc1C[C@H]1[C@H](C)CCN1c1nc(N2CCO[C@H](C)C2)cc(=O)[nH]1 [Example 296, 2-((2S,3R)-2-(2-methoxybenzyl)-3-methylpyrrolidin-1-yl)-6-((R)-2-methylmorpholino)pyrimidin-4(3H)-one]	40.5	1850
COc1ccc(F)cc1C[C@H]1CCCCCN1c1cc(N2CCOCC2)cc(=O)[nH]1 [Example 86]	65	1380
C[C@@H]1CCN(c2nc(N3CCOCC3)cc(=O)[nH]2)[C@H]1Cc1ccccc1 [Example 215]	1	74
COCCOc1ccc(C[C@H]2CCCCCN2c2nc(N3CCO[C@H](C)C3)cc(=O)[nH]2)cc1 [Example 309, 2-((R)-2-(4-(2-methoxyethoxy)benzyl)azepan-1-yl)-6-((R)-2-methylmorpholino)pyrimidin-4(3H)-one]	6.2	256
COc1ccccc1C[C@H]1CC2(CC2)CN1c1nc(N2CCOCC2)cc(=O)[nH]1 [Example 264, (R)-2-(6-(2-methoxybenzyl)-5-azaspiro[2.4]heptan-5-yl)-6-morpholinopyrimidin-4(3H)-one]	5.3	350
COc1ccccc1C[C@H]1[C@@H](F)CCN1c1nc(N2CCO[C@H](C)C2)cc(=O)[nH]1 [Example 324]	5.4	1680
O=c1cc(N2CCOCC2)cc(N2CCC[C@@H]2Cc2ccc(F)cc2)[nH]1 [Example 16, (R)-6-(2-(4-fluorobenzyl)pyrrolidin-1-yl)-4-morpholino pyridin-2(1H)-one]	89.4	4160
Cn1c(N2CCC[C@@H]2Cc2ccccc2)cc(N2CCOCC2)cc1=O [Example 173, (R)-6-(2-benzylpyrrolidin-1-yl)-1-methyl-4-morpholinopyridin-2(1H)-one]	37.8	1900
C[C@@H]1CN(c2cc(=O)[nH]c(N3CCCCC[C@@H]3Cc3ccsc3)n2)CCO1 [Example 315, 6-((R)-2-methylmorpholino)-2-((R)-2-(thiophen-3-ylmethyl)azepan-1-yl)pyrimidin-4(3H)-one]	16.4	813
O=c1cc(N2CCOCC2)nc(N2CCCCC[C@@H]2Cc2cccc(F)c2F)[nH]1 [Example 223]	26.3	512
C[C@@H]1CN(c2cc(=O)[nH]c(N3CCCCC[C@@H]3Cc3ccccc3)n2)CCO1 [Example 270, 2-((R)-2-benzylazepan-1-yl)-6-((R)-2-methylmorpholino)pyrimidin-4(3H)-one]	7.4	818

Structure (SMILES)	IC50 [1] [nM]	IC50 (cellular ATM activity) [nM]
C[C@@H]1CN(c2cc(=O)[nH]c(N3CCCCC[C@@H]3Cc3cccc(F)c3F)n2)CCO1 [Example 300, 2-((R)-2-(2,3-difluorobenzyl)azepan-1-yl)-6-((R)-2-methylmorpholino)pyrimidin-4(3H)-one]	93.7	586
COc1cccc(C[C@H]2CCCCCN2c2nc(N3CCOCC3)cc(=O)[nH]2)c1 [Example 203]	1.9	427
C[C@@H]1CN(c2cc(N3[C@@H]4CC[C@@H](C4)[C@@H]3Cc3ccccc3)[nH]c(=O)c2)CCO1 [Example 117, 6-((1R,3S,4S)-3-benzyl-2-azabicyclo[2.2.1]heptan-2-yl)-4-((R)-2-methylmorpholino) pyridin-2(1H)-one]	72.8	684
C[C@@H]1CN(c2cc(=O)[nH]c(N3CCCCC[C@@H]3Cc3ccccc3F)n2)CCO1 [Example 317, 2-((R)-2-(2-fluorobenzyl)azepan-1-yl)-6-((R)-2-methylmorpholino)pyrimidin-4(3H)-one]	46.1	857
Cn1c(N2CCC[C@@H]2Cc2ccccc2)nc(N2CCOCC2)cc1=O [Example 176, (R)-2-(2-benzylpyrrolidin-1-yl)-3-methyl-6-morpholinopyrimidin-4(3H)-one]	5.1	462
O=c1cc(N2CCOCC2)nc(N2CCCCC[C@@H]2Cc2cccc3c2OCC3)[nH]1 [Example 225]	3.9	260
O=c1cc(N2CCOCC2)nc(N2CCC[C@@H]2Cc2ccc(Cl)c(Cl)c2)[nH]1 [Example 190]	4.2	939
COc1ccc(C[C@H]2CCCN2c2cc(N3CCOCC3)cc(=O)[nH]2)cc1 [Example 13, (R)-6-(2-(4-methoxybenzyl)pyrrolidin-1-yl)-4-morpholino pyridin-2(1H)-one]	70.5	4490
O=c1cc(N2CCOCC2)cc(N2CCCC(F)(F)C[C@@H]2Cc2ccccc2)[nH]1 [Example 74, (S)-6-(2-benzyl-4,4-difluoroazepan-1-yl)-4-morpholinopyridin-2(1H)-one]	11.2	498
COc1ccccc1C[C@H]1[C@@H]2C[C@@H]2CN1c1cc(N2CCOCC2)cc(=O)[nH]1 [Example 126]	6.9	388
O=c1cc(N2CCOCC2)cc(N2C[C@@H]3CC[C@@H](C3)[C@@H]2Cc2ccccc2)[nH]1 [Example 134]	13.9	581
O=c1cc(N2CCOCC2)nc(N2CCCCC[C@@H]2Cc2ccsc2)[nH]1 [Example 248]	3.9	421
O=c1cc(N2CCOCC2)nc(N2CC[C@H](O)[C@@H]2Cc2ccccc2)[nH]1 [Example 255, 2-((2S,3S)-2-benzyl-3-hydroxypyrrolidin-1-yl)-6-morpholinopyrimidin-4(3H)-one]	70.9	1260
O=c1cc(N2CCOCC2)cc(N2CC(F)(F)C[C@@H]2Cc2ccccc2)[nH]1 [Example 102, (S)-6-(2-benzyl-4,4-difluoropyrrolidin-1-yl)-4-morpholinopyridin-2(1H)-one]	39.6	2220
Cc1ccccc1C[C@H]1CCCCCN1c1cc(N2CCOCC2)cc(=O)[nH]1 [Example 25, (R)-6-(2-(2-methylbenzyl)azepan-1-yl)-4-morpholinopyridin-2(1H)-one]	13.7	530
CC1(C)CCCN(c2nc(N3CCOCC3)cc(=O)[nH]2)[C@@H](Cc2ccccc2)C1 [Example 242]	84.5	9760

— US11685734B2, “ATM kinase inhibitors and compositions and methods of use thereof” (CHDI Foundation, Inc., priority 2019, dated 2023)
